PMC5734728, “The JAK2/STAT3 inhibitor pacritinib effectively inhibits patient-derived GBM brain tumor initiating cells in vitro and when used in combination with temozolomide increases survival in an orthotopic xenograft model” (PLoS ONE, 2017)
Where two headings read alike, the source gives them in different places.

Experiments:
[1] = five-day pharmacokinetics by LC-MS, serum and brain; format: in vivo, mice; conditions: SCID, mouse, five days, mean ± SD, N = 3; for concentration at 300 min: 300 minutes post-dosing; for concentration at 30 min: 30 minutes post-dosing
Description: Animal studies were performed following institutional ethical guidelines and protocols approved by the University of Calgary Health Sciences Animal Care Committee, accredited by the Canadian Council on Animal Care (CCAC). Non-tumor bearing mice were treated with 100 or 200 mg/kg doses of pacritinib by oral gavage for five consecutive days. Three mice per group were used. Post-dosing, blood was collected at 30 and 300 minute time points. The serum was separated by centrifugation. Liquid chromatography-mass spectrometry (LC-MS) was performed to determine the serum concentration of pacritinib. To determine brain penetration, brains were harvested and processed at the 300 minute time point following transcardiac perfusion with PBS. Brains were removed and flash frozen at -80°C. Pacritinib accumulation in the brain was analyzed using LC-MS.

BT124 = assay: alamarBlue BTIC viability assay, BT124; format: cell-based; conditions: Homo sapiens; BTIC line BT124, alamarBlue
p-STAT3 Y705 = assay: western blotting of activated STAT3 in BTICs; format: cell-based, human; conditions: for STAT3 activation (phosphorylation on tyrosine 705): 3 hours
Description: (§1) BTIC spheres were enzymatically dissociated as described above and plated at 10^6 cells/2 mL of media. Cells were treated with vehicle (DMSO), pacritinib, TMZ, or a combination of pacritinib and TMZ and pelleted at select time points (3, 24, and 48 hours). For protein extraction, BTICs were lysed in modified radio-immunoprecipitation assay buffer supplemented with Complete Mini protease (Roche) and Halt phosphatase (Thermo Scientific) inhibitor cocktails. Protein concentrations were quantified using the BioRad protein assay; 20 μg of protein were loaded on 6% or 10% sodium dodecyl sulfate polyacrylamide gel electrophoresis (SDS PAGE) gels and transblotted to nitrocellulose membranes. Blots were stained with primary antibodies followed by horseradish peroxidase-conjugated secondary antibodies. Primary antibodies included p-STAT3 Y705 (1:1000; Cell Signaling Technology), STAT3 (1:1000; Cell Signaling Technology), p-Akt S473 (1:1000; Cell Signaling Technology), Akt (1:1000; Cell Signaling Technology), p-p44/42 MAPK (T202/Y204) (1:1000; Cell Signaling Technology), p44/42 MAPK (1:4000; Cell Signaling Technology), poly (ADP-ribose) polymerase (1:1000; Cell Signaling Technology), β-tubulin (1:1000; Cell Signaling Technology), and Actin (1:1000; Santa Cruz Biotechnology). Secondary antibodies included donkey anti-mouse (1:5000; Cell Signaling Technology), donkey anti-goat (1:5000; Millipore), and goat anti-rabbit (1:5000; Cell Signaling Technology). The blots were washed with tris-buffered saline and tween 20 (T-TBS) (50mM Tris, 150mM NaCl, 0.05% Tween 20, pH 7.6) and blocked with tris-buffered saline (TBS) before imaging. Bands were visualized with the SuperSignal West Pico chemiluminescent solution (Thermo Scientific) and an Amersham™ Imager 600 (General Electric).

BT147 = assay: neurosphere assay, BT147; format: cell-based, human; conditions: 3 μM
cleaved PARP = assay: western blotting of cleaved PARP in BTICs; format: cell-based, human; conditions: BT69, 24 hours
Description: as §1, with “Protein concentrations were quantified using the BioRad protein assay; 20 μg of protein were loaded on 6% or 10% sodium dodecyl sulfate polyacrylamide gel electrophoresis (SDS PAGE) gels and transblotted to nitrocellulose membranes.” left out, “Primary antibodies included p-STAT3 Y705 (1:1000;” left out, “The blots were washed with tris-buffered saline and tween 20 (T-TBS) (50mM Tris, 150mM NaCl, 0.05% Tween 20, pH 7.6) and blocked with tris-buffered saline (TBS) before imaging.” left out

BT189 = assay: alamarBlue BTIC viability assay, BT189; format: cell-based; conditions: Homo sapiens; BTIC line BT189, alamarBlue
[2] = tested on: BT147 orthotopic xenograft; assay: Kaplan-Meier survival, orthotopic BT147 xenograft; format: in vivo; conditions: BT147 xenografted mice
Description: For Kaplan-Meier survival studies, BTIC spheres from BT53 or BT147 were dissociated to a single-cell suspension. Mice were anaesthetized using 10 mg/kg ketamine/xylazine. Buprenorphine (0.05 mg/kg) was administered once pre-operatively and once post-operatively to minimize animal suffering. 5 x 10^4 cells were stereotactically implanted into the right striata of 8- to 10-week-old female severe combined immunodeficient (SCID) mice, as previously described and approved by the University of Calgary Health Sciences Animal Care Committee, accredited by CCAC. Mice were randomized to vehicle or treatment cohorts, with a minimum of 8 mice per group, one week after cell implantation. For BT147, vehicle (Ora-Plus; Galenova), pacritinib (100 mg/kg), TMZ (30 mg/kg), or a combination of pacritinib (100 mg/kg) and TMZ (30 mg/kg), were administered via oral gavage. Animals completed a five-week regimen of three weekly treatments for a total of 15 treatments. For BT53, 100 mg/kg of pacritinib was administered twice per day alone or in combination with 50 mg/kg TMZ once per day, for one week via oral gavage. Following this, mice received 100 mg/kg pacritinib twice per day in combination with 10 mg/kg TMZ once per day for two weeks. Mice were euthanized with a lethal dose of sodium pentobarbital at a pre-defined humane endpoint. Specific criteria for the endpoint included: 20% weight loss, lack of grooming, inactivity, hind limb paralysis, and/or inability to eat or drink. The body weights were closely monitored throughout the course of the experiment. […] The presence of tumor was confirmed in the mice via necropsy and cranial dissection.

BT53 = assay: alamarBlue BTIC viability assay, BT53; conditions: Homo sapiens, read-out: IC50 (viability)
Description: Accumax (eBioscience) was used to enzymatically dissociate BTIC spheres to single cells. Cells were seeded at 1000 cells per well in 96-well plates and treated with vehicle (DMSO) or drug, 24 hours after plating. BTIC viability was assessed after 7–14 days, once spheres were formed in control wells, by performing the alamarBlue™ (Invitrogen) assay per the manufacturer’s instructions. In brief, the alamar dye was added to each well and plates were read 6 hours later. Fluorescence intensity (excitation 540 nm; emission 590 nm) was measured on a SpectraMax M Series Multi-Mode Microplate reader. […] All experiments were performed in triplicate with a minimum of 3 wells per condition.
BTICs were treated with suboptimal doses of 1 μM pacritinib (CTI Biopharma), 10 μg/mL TMZ (Sigma), or a combination of pacritinib and TMZ. […] Percent inhibition was determined by normalizing each well to the control well (0.1% DMSO).

**Q.** Which results are given for `C1=C/COCc2cc(ccc2OCCN2CCCC2)Nc2nccc(n2)-c2cccc(c2)COC/1` [pacritinib]?
**A.** concentration at 300 min ([1]; brain, 100 mg/kg oral gavage, read-out: [Brain]): 0.91 ± 0.061 µM; concentration at 300 min ([1]; brain, 200 mg/kg oral gavage, read-out: [Brain]): 0.84 ± 0.02 µM; concentration at 30 min ([1]; serum, 100 mg/kg oral gavage): 2.66 ± 0.72 µM; concentration at 300 min ([1]; serum, 100 mg/kg oral gavage, read-out: [Serum]): 0.51 ± 0.14 µM; concentration at 30 min ([1]; serum, 200 mg/kg oral gavage): 12.6 ± 0.98 µM; concentration at 300 min ([1]; serum, 200 mg/kg oral gavage, read-out: [Serum]): 0.43 ± 0.12 µM; IC50 (BT124): 1.33 µM; p-STAT3 Y705 (p-STAT3 Y705; BT53, 48 hours, 1 μM pacritinib, 10 μg/mL TMZ or both): dramatically reduced phosphorylation; STAT3 activation (phosphorylation on tyrosine 705) (p-STAT3 Y705; BT53, low micromolar concentrations): decreased STAT3 activation; activated STAT3 (phosphorylation on tyrosine 705) (p-STAT3 Y705; BT69, 3 hours): decreased activated STAT3; STAT3 activation (phosphorylation on tyrosine 705) (p-STAT3 Y705; BT147, 1 μM): strongly decreased STAT3 activation; sphere formation (BT147): completely abolished sphere formation; cell death (cleaved PARP levels) (cleaved PARP): increase in cleaved PARP levels; IC50 (BT189): 1.01 µM; survival advantage, single agent ([2]; 100 mg/kg pacritinib, p < 0.4649 log-rank): no survival advantage; median survival ([2]; pacritinib 100 mg/kg, TMZ 30 mg/kg, oral, thrice weekly for five weeks, control 52 days): 48 days; IC50 (BT53): 0.92 µM
